In patent US20220016215A1, “GIP RECEPTOR AGONIST PEPTIDE COMPOUNDS AND USES THEREOF” (TAKEDA PHAARMACEUTICAL COMPANY LIMITED, priority 2018, published 2022):
Marks after values point to notes of the source that are not given here. Non-standard residues stand in square brackets, D forms with d. Groups on a side chain read outwards from the residue. No end group written: not given here. *: point of attachment. C15 diacid = O=C(O)CCCCCCCCCCCCCC(=O)*; Palmitoyl = CCCCCCCCCCCCCCCC(=O)*; Aib = CC(C)(N)C(=O)O

Assays:
[1] = system: morphine (0.6 mg/kg, s.c.)-induced emesis in ferrets; experiment: Morphine-induced acute emetic model in male ferrets; format: in vivo, ferret; conditions: for Emesis: Duration / Emesis: Frequency / Emesis: No. of animals (responder/used) / Fidget: Duration / Fidget: Frequency / Fidget: No. of animals (responder/used) / Licking: Duration / Licking: Frequency / Licking: No. of animals (responder/used) / Retching: Duration / Retching: Frequency / Retching: No. of animals (responder/used) / Vomiting: Duration / Vomiting: Frequency / Vomiting: No. of animals (responder/used) / Emesis: Latency / Fidget: Latency / Licking: Latency / Retching: Latency / Vomiting: Latency: morphine 0.6 mg/kg s.c. 0.5 h after drug, 106-[…] s.c. (30 nmol/kg); for Emesis: Latency / Fidget: Latency / Licking: Latency / Retching: Latency / Vomiting: Latency: non-responders counted as 30 min; for Attenuation of morphine-induced emesis (in words) / Comment: Anti-Emetic Activity (inhibition) on morphine-induced emesis: male ferrets; for Attenuation of morphine-induced emesis (in words): 30 nmol/kg s.c. 30 minutes before morphine 0.6 mg/kg s.c.; for Comment: Anti-Emetic Activity (inhibition) on morphine-induced emesis: summary of the morphine experiments
Description: Example 6—In-Vivo Effect of GIP Receptor Agonist Peptides on Emesis in Morphine Induced Emesis Model in Live Male Ferrets
Effect of subcutaneously administered GIP receptor agonist peptide in morphine-induced acute emetic model.
To evaluate the antiemetic effect, the GIP receptor agonist peptides other than natural human GIP were subcutaneously administered into male ferrets 30 minutes before morphine administration. […]. Up to 60 minutes after morphine administration, the condition of the ferrets was monitored to record the frequencies and time points of abdominal contraction motions, vomiting behaviors, licking with the tongue, and fidgety behavior occurring
Effects of Subcutaneously Administered GIP Receptor Agonist Peptides in Morphine-Induced Acute Emetic Model
30 nmol/kg of Compounds 3 and 5 were dissolved with a vehicle (0.09 w/v % tween 80/10% DMSO/saline), respectively, to prepare test solutions. […] of the test solutions and the vehicle were subcutaneously administered to ferrets (4 in each group), respectively. At the time of each of 4 hours, after administration, 0.6 mg/kg of morphine was subcutaneously administered. […] See results in Tables 6, 7 and 8.
(§1) 10 nmol/kg of each compound dissolved with a vehicle (0.09 w/v % tween 80/10% DMSO/saline) respectively, to prepare test solutions. […] of the test solutions and the vehicle were subcutaneously administered to ferrets (4 in each group), respectively. At the time of each of 4 hours, or 120 hours after administration, 0.6 mg/kg of morphine was subcutaneously administered. Up to 360 minutes after morphine administration, the condition of the ferrets was monitored to record the frequencies and time points of abdominal contraction motions, vomiting behaviors, licking with the tongue, and fidgety behavior occurring.
as §1, with “30 nmol/kg” for “10 nmol/kg”, “80/10% DMSO/saline),respectively,” for “80/10% DMSO/saline) respectively,”

[2] = target: human GLP-1R (human, UniProt P43220 24-463); experiment: cell-based or functional assay
[3] = target: T1, human GIPR (human, UniProt P48546 22-466); experiment: cell-based or functional assay
T1 sequence (looked up): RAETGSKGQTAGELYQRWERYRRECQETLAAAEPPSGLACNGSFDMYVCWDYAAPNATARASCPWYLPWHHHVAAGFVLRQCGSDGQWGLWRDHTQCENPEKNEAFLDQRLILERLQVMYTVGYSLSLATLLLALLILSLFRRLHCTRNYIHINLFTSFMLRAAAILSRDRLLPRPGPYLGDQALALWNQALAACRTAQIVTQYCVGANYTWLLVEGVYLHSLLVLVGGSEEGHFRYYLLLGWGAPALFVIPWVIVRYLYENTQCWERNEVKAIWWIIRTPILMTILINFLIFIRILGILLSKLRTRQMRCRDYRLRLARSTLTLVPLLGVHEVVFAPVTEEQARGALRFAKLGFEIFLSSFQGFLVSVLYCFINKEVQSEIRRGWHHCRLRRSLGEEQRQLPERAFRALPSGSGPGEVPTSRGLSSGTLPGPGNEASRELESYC

CC[C@H](C)[C@H](NC(=O)[C@H](CO)NC(=O)[C@H](Cc1ccc(O)cc1)NC(=O)[C@H](CC(=O)O)NC(=O)[C@H](CO)NC(=O)[C@@H](NC(=O)[C@H](Cc1ccccc1)NC(=O)[C@@H](NC(=O)CNC(=O)[C@H](CCC(=O)O)NC(=O)[C@@H](C)NC(=O)[C@@H](N)Cc1ccc(O)cc1)[C@@H](C)O)[C@@H](C)CC)C(=O)N[C@@H](C)C(=O)N[C@@H](CCSC)C(=O)N[C@@H](CC(=O)O)C(=O)N[C@@H](CCCCN)C(=O)N[C@H](C(=O)N[C@@H](Cc1c[nH]cn1)C(=O)N[C@@H](CCC(N)=O)C(=O)N[C@@H](CCC(N)=O)C(=O)N[C@@H](CC(=O)O)C(=O)N[C@@H](Cc1ccccc1)C(=O)N[C@H](C(=O)N[C@@H](CC(N)=O)C(=O)N[C@@H](Cc1c[nH]c2ccccc12)C(=O)N[C@@H](CC(C)C)C(=O)N[C@@H](CC(C)C)C(=O)N[C@@H](C)C(=O)N[C@@H](CCC(N)=O)C(=O)N[C@@H](CCCCN)C(=O)O)C(C)C)[C@@H](C)CC [Compound 4]
Emesis: Duration ([1]; ferrets): 0.0 ± 0.0 min | Emesis: Frequency ([1]; ferrets): 0.0 ± 0.0 | Emesis: No. of animals (responder/used) ([1]; ferrets): 0/4 # | Fidget: Duration ([1]; ferrets): 0.0 ± 0.0 min | Fidget: Frequency ([1]; ferrets): 0.0 ± 0.0 | Fidget: No. of animals (responder/used) ([1]; ferrets): 0/4 | Licking: Duration ([1]; ferrets): 0.0 ± 0.0 min | Licking: Frequency ([1]; ferrets): 0.0 ± 0.0 | Licking: No. of animals (responder/used) ([1]; ferrets): 0/4 # | Retching: Duration ([1]; ferrets): 0.0 ± 0.0 min | Retching: Frequency ([1]; ferrets): 0.0 ± 0.0 | Retching: No. of animals (responder/used) ([1]; ferrets): 0/4 # | Vomiting: Duration ([1]; ferrets): 0.0 ± 0.0 min | Vomiting: Frequency ([1]; ferrets): 0.0 ± 0.0 | Vomiting: No. of animals (responder/used) ([1]; ferrets): 0/4 | Emesis: Latency ([1]; ferrets): 30.0 ± 0.0 min | Fidget: Latency ([1]; ferrets): 30.0 ± 0.0 min | Licking: Latency ([1]; ferrets): 30.0 ± 0.0 min | Retching: Latency ([1]; ferrets): 30.0 ± 0.0 min | Vomiting: Latency ([1]; ferrets): 30.0 ± 0.0 min | Attenuation of morphine-induced emesis (in words) [1]: completely attenuated | Comment: Anti-Emetic Activity (inhibition) on morphine-induced emesis [1]: 100% inhibition

CC[C@H](C)[C@H](NC(=O)[C@H](CO)NC(=O)[C@H](Cc1ccc(O)cc1)NC(=O)[C@H](CC(=O)O)NC(=O)[C@H](CO)NC(=O)[C@@H](NC(=O)[C@H](Cc1ccccc1)NC(=O)[C@@H](NC(=O)CNC(=O)[C@H](CCC(=O)O)NC(=O)[C@@H](C)NC(=O)[C@@H](N)Cc1ccc(O)cc1)[C@@H](C)O)[C@@H](C)CC)C(=O)N[C@@H](C)C(=O)N[C@@H](CCSC)C(=O)N[C@@H](CC(=O)O)C(=O)N[C@@H](CCCCN)C(=O)N[C@H](C(=O)N[C@@H](Cc1c[nH]cn1)C(=O)N[C@@H](CCC(N)=O)C(=O)N[C@@H](CCC(N)=O)C(=O)N[C@@H](CC(=O)O)C(=O)N[C@@H](Cc1ccccc1)C(=O)N[C@H](C(=O)N[C@@H](CC(N)=O)C(=O)N[C@@H](Cc1c[nH]c2ccccc12)C(=O)N[C@@H](CC(C)C)C(=O)N[C@@H](CC(C)C)C(=O)N[C@@H](C)C(=O)N[C@@H](CCC(N)=O)C(=O)N[C@@H](CCCCN)C(=O)N1CCC[C@H]1C(=O)N[C@@H](CO)C(=O)N[C@@H](CO)C(=O)NCC(=O)N[C@@H](C)C(=O)N1CCC[C@H]1C(=O)N1CCC[C@H]1C(=O)N1CCC[C@H]1C(=O)N[C@@H](CO)C(N)=O)C(C)C)[C@@H](C)CC [Compound 11]
Emesis: Duration ([1]; ferrets): 0.0 ± 0.0 min | Emesis: Frequency ([1]; ferrets): 0.0 ± 0.0 | Emesis: No. of animals (responder/used) ([1]; ferrets): 0/4 # | Fidget: Duration ([1]; ferrets): 0.0 ± 0.0 min | Fidget: Frequency ([1]; ferrets): 0.0 ± 0.0 | Fidget: No. of animals (responder/used) ([1]; ferrets): 0/4 | Licking: Duration ([1]; ferrets): 0.0 ± 0.0 min | Licking: Frequency ([1]; ferrets): 0.0 ± 0.0 | Licking: No. of animals (responder/used) ([1]; ferrets): 0/4 # | Retching: Duration ([1]; ferrets): 0.0 ± 0.0 min | Retching: Frequency ([1]; ferrets): 0.0 ± 0.0 | Retching: No. of animals (responder/used) ([1]; ferrets): 0/4 # | Vomiting: Duration ([1]; ferrets): 0.0 ± 0.0 min | Vomiting: Frequency ([1]; ferrets): 0.0 ± 0.0 | Vomiting: No. of animals (responder/used) ([1]; ferrets): 0/4 | Emesis: Latency ([1]; ferrets): 30.0 ± 0.0 min | Fidget: Latency ([1]; ferrets): 30.0 ± 0.0 min | Licking: Latency ([1]; ferrets): 30.0 ± 0.0 min | Retching: Latency ([1]; ferrets): 30.0 ± 0.0 min | Vomiting: Latency ([1]; ferrets): 30.0 ± 0.0 min | Attenuation of morphine-induced emesis (in words) [1]: completely attenuated | Comment: Anti-Emetic Activity (inhibition) on morphine-induced emesis [1]: 100% inhibition

Ac-(D-Tyr)AEGTFISDYSIAMDAIHQQDFVNWLLAQLys-(palmitoyl acyl fatty acid)-NH2 (Ac-[dY]AEGTFISDYSIAMDAIHQQDFVNWLLAQK(Palmitoyl)-NH2; SMILES CCCCCCCCCCCCCCCC(=O)NCCCC[C@H](NC(=O)[C@H](CCC(N)=O)NC(=O)[C@H](C)NC(=O)[C@H](CC(C)C)NC(=O)[C@H](CC(C)C)NC(=O)[C@H](Cc1c[nH]c2ccccc12)NC(=O)[C@H](CC(N)=O)NC(=O)[C@@H](NC(=O)[C@H](Cc1ccccc1)NC(=O)[C@H](CC(=O)O)NC(=O)[C@H](CCC(N)=O)NC(=O)[C@H](CCC(N)=O)NC(=O)[C@H](Cc1c[nH]cn1)NC(=O)[C@@H](NC(=O)[C@H](C)NC(=O)[C@H](CC(=O)O)NC(=O)[C@H](CCSC)NC(=O)[C@H](C)NC(=O)[C@@H](NC(=O)[C@H](CO)NC(=O)[C@H](Cc1ccc(O)cc1)NC(=O)[C@H](CC(=O)O)NC(=O)[C@H](CO)NC(=O)[C@@H](NC(=O)[C@H](Cc1ccccc1)NC(=O)[C@@H](NC(=O)CNC(=O)[C@H](CCC(=O)O)NC(=O)[C@H](C)NC(=O)[C@@H](Cc1ccc(O)cc1)NC(C)=O)[C@@H](C)O)[C@@H](C)CC)[C@@H](C)CC)[C@@H](C)CC)C(C)C)C(N)=O) [Compound 7]
Ferrets in which the vomiting symptom was observed (in words) ([1]; ferrets, morphine administered 4 hours after administration): all of the 4 ferrets

YXEGTFISDYSIAMDKIHQQDFVNWLLAQKGKKNDWKHNITQK (Aib at 2; Lys-(gamma-glutamic acid)3-palmitoyl at 43; C-terminal -OH) [Compound No. 19]
GLP1R pEC50 [2]: 8.26

Y[Aib]EGTFISDYSIALDKIHQQK([ethylene glycol-ethylene glycol-C15 diacid])FVNWLLAQRG-OH [Compound No. 24]
GIPR EC50 nM (A) [3]: < 0.001 nM

Y[Aib]EGTFISDYSIALDKIHQQK([ethylene glycol-ethylene glycol-C15 diacid])FVNWLLAQR-NH2 [Compound No. 28]
GIPR EC50 nM (A) [3]: < 0.001 nM

Y[dA]EGTFISDYSIAMDKIHQQDFVNWLLAQK-OH [Compound No. 4]
GLP1R EC50 nM (B) [2]: 355 nM | GLP1R pEC50 [2]: 6.5

Y[dA]EGTFISDYSIAMDKIHQQDFVNWLLAQKGKKNDWK(Palmitoyl)HNIIQ-NH2 [Compound No. 2]
GLP1R EC50 nM (B) [2]: 5 nM | GLP1R pEC50 [2]: 8.3

Ac-YAEGTFISDYSIAMDKIHQQDFVNWLLAQKGKKNDWKHNIIQ-OH [Compound No. 1]
GIPR EC50 nM (A) [3]: 0.01 nM | GIPR pEC50 [3]: 11 | GLP1R EC50 nM (B) [2]: 302 nM | GLP1R pEC50 [2]: 6.5

Y[Aib]EGTFISDYSIALDKIHQQDFVNWLLAQK([ethylene glycol-ethylene glycol-C15 diacid])G-OH [Compound No. 31]
GIPR EC50 nM (A) [3]: 0.002 nM

YAEGTFISDYSIAMDKIHQQDFVNWLLAQKGKKNDWKHNIIQ (Lys-(palmitoyl acyl fatty acid acyl) at 16; C-terminal -NH2) [Compound No. 3]
GIPR EC50 nM (A) [3]: 0.331 nM | GIPR pEC50 [3]: 9.5 | GLP1R EC50 nM (B) [2]: 148 nM | GLP1R pEC50 [2]: 6.8

Y[Aib]EGTFISDYSIALDKIK([ethylene glycol-ethylene glycol-C15 diacid])QQDFVNWLLAQRG-OH [Compound No. 25]
GIPR EC50 nM (A) [3]: < 0.001 nM | GLP1R EC50 nM (B) [2]: > 1000 nM | GLP1R pEC50 [2]: < 8
